Experiment [1] has as its target human PDE41 Dcatalytic domain (UniProt no. Q08499 [S380-L740]) (Homo sapiens (Human), UniProt Q08499). Description: PDE4 Assay (TR-FRET, FAM-cAMP cleavage). It counts as biochemical. The settings on record: human PDE4D catalytic domain, cAMP / FAM-cAMP substrate, read-out: PDE4 IC50 range. The method, then:
The human PDE41 Dcatalytic domain (UniProt no. Q08499 [S380-L740]) was incubated with a mixture of non-labelled cAMP (cyclic adenosine monophosphate) and fluorescein amidite (FAM) conjugated cAMP and titrated test or reference compound. Following brief incubation the enzymatic reaction was stopped by addition of binding buffer containing nanoparticles with immobilized trivalent metal ions capable of binding 1) AMP phospho groups and 2) terbium (Tb) donor fluorophores. Subsequent excitation of the Tb donor triggers time-resolved FRET to adjacent FAM acceptor molecules resulting in light emission. In the presence of a PDE4 inhibitor, AMP generation was reduced resulting in a lower fluorescence signal. The cAMP phosphodiester is not bound by the detection system.
The results were calculated as the molar concentrations resulting in 50/inhibition of the substrate cleavage compared to controls samples, and are expressed as IC50 (nM).
A general note: In TR-FRET formats the signal depends on donor and acceptor labels being close together.

The subject of experiment [2] is TNF-α release, human peripheral blood mononuclear cells (PBMC). Description: TNF-α Release in LPS-stimulated PBMC. The settings on record: 30 minutes pre-incubation, lipopolysaccharide stimulation 18 hours, TR-FRET, read-out: TNF-α IC50 range. It counts as cell-based. As to the method: Human peripheral blood mononuclear cells (PBMC) were isolated from buffy coats. The blood is mixed with saline at a ratio of 1:1, and the PBMC were isolated using Lymphoprep Tube™ (Nycomed, Norway). The PBMC were suspended in RPMI1640 with 0.5% human serum albumin, pen/strep and 2 mM L-glutamine at a concentration of 5×105 c/ml. The cells were pre-incubated for 30 minutes with the test compounds in 96 well tissue culture plates and stimulated for 18 hours with lipopolysaccharide 1 mg/ml (Sigma). TNF-α concentration in the supernatants was measured using homogeneous time-resolved fluorescence resonance (TR-FRET). The assay is quantified by measuring fluorescence at 665 nm (proportional to TNF-α concentration) and 620 nm (control).
Results were expressed as IC50 values calculated from inhibition curves using as positive controls the secretion in LPS stimulated wells and as negative controls the secretion in unstimulated cells.

Broadly, the IC50 is the point on the concentration scale where inhibition reaches its midpoint.

Some results are limits rather than exact numbers.

Chain of human PDE41 Dcatalytic domain (Q08499 380-740): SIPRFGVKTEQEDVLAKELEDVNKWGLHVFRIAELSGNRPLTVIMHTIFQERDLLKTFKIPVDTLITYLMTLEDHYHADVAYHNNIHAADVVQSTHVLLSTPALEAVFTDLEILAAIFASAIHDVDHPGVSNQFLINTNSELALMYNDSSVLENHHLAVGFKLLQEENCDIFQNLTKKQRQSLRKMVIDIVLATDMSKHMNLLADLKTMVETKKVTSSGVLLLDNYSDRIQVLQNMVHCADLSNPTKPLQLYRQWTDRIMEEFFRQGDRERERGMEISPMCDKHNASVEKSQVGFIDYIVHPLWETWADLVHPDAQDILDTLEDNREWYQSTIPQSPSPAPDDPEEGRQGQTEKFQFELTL

On to `CN(CCC1CCOCC1)c1nc2c(c(NC3CCOCC3)n1)[S+]([O-])CC2` (stereo in doubt) [Example 1, (5R)—N2-methyl-5-oxido-N4-tetrahydropyran-4-yl-N2-(2-tetrahydropyran-4-ylethyl)-6,7-dihydrothieno[3,2-d]pyrimidin-5-ium-2,4-diamine], for which the IC50 in experiment [1] and in experiment [2] was 0.01 to 0.05 µM in each case.
For `CCN(CCC1CCOCC1)c1nc2c(c(NC3CCOCC3)n1)[S@@+]([O-])CC2` [Example 2, (5R)—N2-ethyl-5-oxido-N4-tetrahydropyran-4-yl-N2-(2-tetrahydropyran-4-ylethyl)-6,7-dihydrothieno[3,2-d]pyrimidin-5-ium-2,4-diamine], the IC50 in experiment [1] and in experiment [2] was below 0.01 µM in each case.
For the compound `CN(CCC1CCOCC1)c1nc2c(c(NC(C)(C)C)n1)[S+]([O-])CC2` (stereo not drawn) [Example 3, N4-tert-butyl-N2-methyl-5-oxido-N2-(2-tetrahydropyran-4-ylethyl)-6,7-dihydrothieno[3,2-d]pyrimidin-5-ium-2,4-diamine], the half-inhibitory concentration (IC50) in experiment [1] and in experiment [2] was 0.01 to 0.05 µM each time.
On to `CCCNc1nc(N(C)CCC2CCOCC2)nc2c1[S+]([O-])CC2` (stereo not drawn) [Example 4, N2-methyl-5-oxido-N4-propyl-N2-(2-tetrahydropyran-4-ylethyl)-6,7-dihydrothieno[3,2-d]pyrimidin-5-ium-2,4-diamine], for which the IC50 lay within 0.05 to 0.1 µM in experiment [1] and 0.01 to 0.05 µM in experiment [2].
Take `CC(C)Nc1nc(N(C)CCC2CCOCC2)nc2c1[S+]([O-])CC2` (stereo not drawn) [Example 5, N4-isopropyl-N2-methyl-5-oxido-N2-(2-tetrahydropyran-4-ylethyl)-6,7-dihydrothieno[3,2-d]pyrimidin-5-ium-2,4-diamine]: the IC50 in experiment [1] and in experiment [2] was 0.01 to 0.05 µM throughout.
In the case of `CCCCNc1nc(N(C)CCC2CCOCC2)nc2c1[S+]([O-])CC2` (stereo not drawn) [Example 6, N4-butyl-N2-methyl-5-oxido-N2-(2-tetrahydropyran-4-ylethyl)-6,7-dihydrothieno[3,2-d]pyrimidin-5-ium-2,4-diamine], the IC50 in experiment [1] and in experiment [2] was 0.01 to 0.05 µM throughout.
For `CC(C)CNc1nc(N(C)CCC2CCOCC2)nc2c1[S+]([O-])CC2` (stereo not drawn) [Example 7, N4-isobutyl-N2-methyl-5-oxido-N2-(2-tetrahydropyran-4-ylethyl)-6,7-dihydrothieno[3,2-d]pyrimidin-5-ium-2,4-diamine], the IC50 in experiment [1] and in experiment [2] was 0.01 to 0.05 µM in each case.
For `CN(CCC1CCOCC1)c1nc2c(c(NC3(C)CCC3)n1)[S+]([O-])CC2` (stereo not drawn) [Example 8, N2-methyl-N4-(1-methylcyclobutyl)-5-oxido-N2-(2-tetrahydropyran-4-ylethyl)-6,7-dihydrothieno[3,2-d]pyrimidin-5-ium-2,4-diamine], the figures for the IC50 in experiment [1] and in experiment [2] were 0.01 to 0.05 µM and below 0.01 µM, respectively.
With `CN(CCC1CCOCC1)c1nc2c(c(NC3CCC3)n1)[S+]([O-])CC2` (stereo not drawn) [Example 9, N4-cyclobutyl-N2-methyl-5-oxido-N2-(2-tetrahydropyran-4-ylethyl)-6,7-dihydrothieno[3,2-d]pyrimidin-5-ium-2,4-diamine], the IC50 in experiment [1] and in experiment [2] was 0.01 to 0.05 µM each time.
`CN(CCC1CCOCC1)c1nc2c(c(NC3(C#N)CCC3)n1)[S+]([O-])CC2` (stereo not drawn) [Example 10, 1-[[2-[methyl(2-tetrahydropyran-4-ylethyl)amino]-5-oxido-6,7-dihydrothieno[3,2-d]pyrimidin-5-ium-4-yl]amino]cyclobutanecarbonitrile]: the IC50 in experiment [1] and in experiment [2] was 0.01 to 0.05 µM each time.
Regarding `CN(CCC1CCOCC1)c1nc2c(c(NC3(C#N)CC3)n1)[S+]([O-])CC2` (stereo not drawn) [Example 11, 1-[[2-[methyl(2-tetrahydropyran-4-ylethyl)amino]-5-oxido-6,7-dihydrothieno[3,2-d]pyrimidin-5-ium-4-yl]amino]cyclopropanecarbonitrile], the IC50 in experiment [1] and in experiment [2] was 0.01 to 0.05 µM throughout.
As to `CC[C@H](C)Nc1nc(N(C)CCC2CCOCC2)nc2c1[S+]([O-])CC2` (stereo partly drawn) [Example 12, N2-methyl-N4-[(1S)-1-methylpropyl]-5-oxido-N2-(2-tetrahydropyran-4-ylethyl)-6,7-dihydrothieno[3,2-d]pyrimidin-5-ium-2,4-diamine], the IC50 in experiment [1] and in experiment [2] was 0.01 to 0.05 µM in each case.
For `CC[C@@H](C)Nc1nc(N(C)CCC2CCOCC2)nc2c1[S+]([O-])CC2` (stereo partly drawn) [Example 13, N2-methyl-N4-[(1R)-1-methylpropyl]-5-oxido-N2-(2-tetrahydropyran-4-ylethyl)-6,7-dihydrothieno[3,2-d]pyrimidin-5-ium-2,4-diamine], the IC50 in experiment [1] is 0.01 to 0.05 µM; in experiment [2], below 0.01 µM.
As to `CN(CCC1CCOCC1)c1nc2c(c(NC3(C)CC3)n1)[S+]([O-])CC2` (stereo not drawn) [Example 14, N2-methyl-N4-(1-methylcyclopropyl)-5-oxido-N2-(2-tetrahydropyran-4-ylethyl)-6,7-dihydrothieno[3,2-d]pyrimidin-5-ium-2,4-diamine], the IC50 in experiment [1] is 0.01 to 0.05 µM; in experiment [2] it was below 0.01 µM.
On to `CN(CCC1CCOCC1)c1nc2c(c(NC3CC4(COC4)C3)n1)[S+]([O-])CC2` (stereo not drawn) [Example 15, N2-methyl-N4-(6-oxaspiro[3.3]heptan-2-yl)-5-oxido-N2-(2-tetrahydropyran-4-ylethyl)-6,7-dihydrothieno[3,2-d]pyrimidin-5-ium-2,4-diamine], for which the IC50 in experiment [1] is 0.01 to 0.05 µM; in experiment [2], below 0.01 µM.
For `COc1cccc(Nc2nc(N(C)CCC3CCOCC3)nc3c2[S+]([O-])CC3)c1` (stereo not drawn) [Example 16, N4-(3-methoxyphenyl)-N2-methyl-5-oxido-N2-(2-tetrahydropyran-4-ylethyl)-6,7-dihydrothieno[3,2-d]pyrimidin-5-ium-2,4-diamine], the IC50 in experiment [1] and in experiment [2] was below 0.01 µM throughout.
As to `CN(CCC1CCOCC1)c1nc2c(c(NC3CCCCC3)n1)[S+]([O-])CC2` (stereo not drawn) [Example 17, N4-cyclohexyl-N2-methyl-5-oxido-N2-(2-tetrahydropyran-4-ylethyl)-6,7-dihydrothieno[3,2-d]pyrimidin-5-ium-2,4-diamine], the IC50 in experiment [1] and in experiment [2] was below 0.01 µM each time.
Consider `CN(CCC1CCOCC1)c1nc2c(c(NC(C)(C)CO)n1)[S+]([O-])CC2` (stereo not drawn) [Example 18, 2-methyl-2-[[2-[methyl(2-tetrahydropyran-4-ylethyl)amino]-5-oxido-6,7-dihydrothieno[3,2-d]pyrimidin-5-ium-4-yl]amino]propan-1-ol], for which the IC50 in experiment [1] and in experiment [2] was above 0.1 µM each time.
As for `CCNc1nc(N(C)CCC2CCOCC2)nc2c1[S+]([O-])CC2` (stereo not drawn) [Example 19, N4-ethyl-N2-methyl-5-oxido-N2-(2-tetrahydropyran-4-ylethyl)-6,7-dihydrothieno[3,2-d]pyrimidin-5-ium-2,4-diamine], the IC50 in experiment [1] was above 0.1 µM; in experiment [2], 0.05 to 0.1 µM.
As to `CN(CCC1CCOCC1)c1nc2c(c(NC3CCCC3)n1)[S+]([O-])CC2` (stereo not drawn) [Example 20, N4-cyclopentyl-N2-methyl-5-oxido-N2-(2-tetrahydropyran-4-ylethyl)-6,7-dihydrothieno[3,2-d]pyrimidin-5-ium-2,4-diamine], the IC50 in experiment [1] and in experiment [2] was below 0.01 µM each time.
In the case of `CN(CCC1CCOCC1)c1nc2c(c(NC3COC3)n1)[S+]([O-])CC2` (stereo not drawn) [Example 21, N2-methyl-N4-(oxetan-3-yl)-5-oxido-N2-(2-tetrahydropyran-4-ylethyl)-6,7-dihydrothieno[3,2-d]pyrimidin-5-ium-2,4-diamine], the values for the IC50 in experiment [1] and in experiment [2] were above 0.1 µM and 0.05 to 0.1 µM, respectively.
For `CN(CCC1CCOCC1)c1nc2c(c(NC3(CO)CCCC3)n1)[S+]([O-])CC2` (stereo not drawn) [Example 22, [1-[[2-[methyl(2-tetrahydropyran-4-ylethyl)amino]-5-oxido-6,7-dihydrothieno[3,2-d]pyrimidin-5-ium-4-yl]amino]cyclopentyl]methanol] the same measures were above 0.1 µM and above 0.1 µM.
The corresponding values for `CN(CCC1CCOCC1)c1nc2c(c(NC3(CO)CCC3)n1)[S+]([O-])CC2` (stereo not drawn) [Example 23, [1-[[2-[methyl(2-tetrahydropyran-4-ylethyl)amino]-5-oxido-6,7-dihydrothieno[3,2-d]pyrimidin-5-ium-4-yl]amino]cyclobutyl]methanol] are above 0.1 µM and above 0.1 µM.
Regarding `CN(CCC1CCOCC1)c1nc2c(c(NC3(CO)CC3)n1)[S+]([O-])CC2` (stereo not drawn) [Example 24, [1-[[2-[methyl(2-tetrahydropyran-4-ylethyl)amino]-5-oxido-6,7-dihydrothieno[3,2-d]pyrimidin-5-ium-4-yl]amino]cyclopropyl]methanol], the IC50 in experiment [1] and in experiment [2] was above 0.1 µM each time.

Values taken from patent US11299497B2, “Substituted tetrahydropyran dihydrothienopyrimidines and their use as phosphodiesterase inhibitors” (UNION therapeutics A/S, priority 2017, dated 2022).
